Assay results taken from patent US20250188030A1, “Biphenyl and Phenylpyridine Compounds” (Pfizer Inc., priority 2023, published 2025).
Entries after “also recorded” stand apart in the source; their conditions may differ. Read-outs that look alike come from different tables or passages of the source.

Legend:
KAT2A = KAT2A (Homo sapiens (Human), UniProt Q92830); assay: KAT2A acetyltransferase biochemical assay (RapidFire mass spectrometry, AcCoA to CoA)
[1] = Metabolite profile in hepatocytes, recombinant human UGT enzymes, and dog plasma and urine; assay type: in vitro ADME; settings: hepatocytes (mouse, dog, human), plasma and urine from dogs
Excerpt: The metabolite profile of 2-(2′-cyclobutyl-3′-fluoro-6-{[(1R,3R)-3-{[(7S)-7-fluoro-5-azaspiro[3.4]octane-7-carbonyl]amino}cyclopentyl]oxy}[1, 1′-biphenyl]-3-yl)-2-methylpropanoic acid (Example A1) assessed in hepatocytes (mouse, dog, human), recombinant human UGT enzymes, and plasma and urine from dogs.
General methods/reviews of obtaining metabolite profile and identifying metabolites of a compound are described in: DAVLIE, 0., et al., “Assessment of Three Human in Vitro Systems in the Generation of Major Human Excretory and Circulating Metabolites,” Chemical Research in Toxicology, 2009, 22(2):357-368; KING, R., “Chapter Three—Biotransformations in Drug Metabolism.” Drug Metabolism Handbook: Concepts and Applications in Cancer Research, edited by Ala F. Nassar et al., Wiley, 2022, 17-38; WU, Y., et al., “Metabolite Identification in Preclinical and Clinical Phase of Drug Development,” Current Drug Metabolism, 2021, 22(11):838-857; GODZIEN, J., et al., “Chapter Fifteen—Metabolite Annotation and Identification.” Comprehensive Analytical Chemistry, Elsevier, 2018, 415-445.

H3K9AC (HT1080 cells) = assay: H3K9AC Sandwich ELISA Assay in HT1080 cells (KAT2A primary cell-based screening assay); design: species or system Human
Outline: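 Acetylated H3K9 quantified by luminescent sandwich ELISA (total H3 capture, H3K9ac detection) on HCl lysates of HT1080 cells. Cells had 24 h compound exposure at 37 °C, top concentration 10 µM, 10-point 3-fold series, 0.1% DMSO; IC50 from four-parameter fitting.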

MM.1S cells = assay: MM1.S 10 Day Proliferation Assay (CellTiter-Glo); assay type: cell-based, Human
Outline: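 MM.1S cells, 500/well in ultra-low-attachment plates, were pre-incubated 16 h, then exposed to a 10-point 1:3 dilution series (top 10 μM final, 0.1% DMSO) for 10 days at 37 °C, with compound-containing medium refreshed at day 5. Viability was read by CellTiter-Glo luminescence; IC50 came from four-parameter fit.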

KAT2B = KAT2B (Homo sapiens (Human), UniProt Q92831); assay: KAT2B acetyltransferase biochemical assay (RapidFire mass spectrometry, AcCoA to CoA)
Sequence of KAT2B (Q92831 2-832): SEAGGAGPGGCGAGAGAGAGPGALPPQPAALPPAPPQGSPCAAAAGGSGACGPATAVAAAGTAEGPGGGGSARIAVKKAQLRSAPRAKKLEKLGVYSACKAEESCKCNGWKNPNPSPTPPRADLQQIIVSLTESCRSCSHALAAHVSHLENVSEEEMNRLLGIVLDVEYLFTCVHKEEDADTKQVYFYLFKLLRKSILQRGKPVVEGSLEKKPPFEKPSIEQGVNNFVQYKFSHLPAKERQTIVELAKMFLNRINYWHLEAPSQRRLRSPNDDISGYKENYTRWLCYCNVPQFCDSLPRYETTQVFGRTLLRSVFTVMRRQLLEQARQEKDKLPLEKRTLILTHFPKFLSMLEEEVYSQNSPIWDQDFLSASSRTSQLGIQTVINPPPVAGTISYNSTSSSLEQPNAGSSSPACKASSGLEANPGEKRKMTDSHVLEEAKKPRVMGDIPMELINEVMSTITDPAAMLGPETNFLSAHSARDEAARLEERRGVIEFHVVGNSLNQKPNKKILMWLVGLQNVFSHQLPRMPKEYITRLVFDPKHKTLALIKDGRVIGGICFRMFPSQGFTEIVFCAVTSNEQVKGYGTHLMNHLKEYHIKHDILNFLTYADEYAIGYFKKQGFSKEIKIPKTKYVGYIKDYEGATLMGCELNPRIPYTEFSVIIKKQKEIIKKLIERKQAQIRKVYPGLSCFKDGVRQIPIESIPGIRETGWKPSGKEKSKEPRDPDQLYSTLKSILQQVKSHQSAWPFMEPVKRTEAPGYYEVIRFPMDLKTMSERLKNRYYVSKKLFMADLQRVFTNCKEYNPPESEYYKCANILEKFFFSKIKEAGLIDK

[2] = read-out: KAT2A Ki at 1 μM AcCoA, 5 μM H3 1-21 peptide, 0.5 nM KAT2A, 90-minute reaction
[3] = Homo sapiens, HT-1080, H3K9AC sandwich ELISA
[4] = read-out: KAT2B Ki at 1 μM AcCoA, 1 μM AcCoA, 5 μM H3 1-21 peptide, 0.5 nM KAT2B, 90-minute reaction
[5] = KAT2A Ki at 1 μM AcCoA, 5 μM H3 1-21 peptide, 0.5 nM KAT2A, 90-minute reaction

Sequence of KAT2A (Q92830 whole entry): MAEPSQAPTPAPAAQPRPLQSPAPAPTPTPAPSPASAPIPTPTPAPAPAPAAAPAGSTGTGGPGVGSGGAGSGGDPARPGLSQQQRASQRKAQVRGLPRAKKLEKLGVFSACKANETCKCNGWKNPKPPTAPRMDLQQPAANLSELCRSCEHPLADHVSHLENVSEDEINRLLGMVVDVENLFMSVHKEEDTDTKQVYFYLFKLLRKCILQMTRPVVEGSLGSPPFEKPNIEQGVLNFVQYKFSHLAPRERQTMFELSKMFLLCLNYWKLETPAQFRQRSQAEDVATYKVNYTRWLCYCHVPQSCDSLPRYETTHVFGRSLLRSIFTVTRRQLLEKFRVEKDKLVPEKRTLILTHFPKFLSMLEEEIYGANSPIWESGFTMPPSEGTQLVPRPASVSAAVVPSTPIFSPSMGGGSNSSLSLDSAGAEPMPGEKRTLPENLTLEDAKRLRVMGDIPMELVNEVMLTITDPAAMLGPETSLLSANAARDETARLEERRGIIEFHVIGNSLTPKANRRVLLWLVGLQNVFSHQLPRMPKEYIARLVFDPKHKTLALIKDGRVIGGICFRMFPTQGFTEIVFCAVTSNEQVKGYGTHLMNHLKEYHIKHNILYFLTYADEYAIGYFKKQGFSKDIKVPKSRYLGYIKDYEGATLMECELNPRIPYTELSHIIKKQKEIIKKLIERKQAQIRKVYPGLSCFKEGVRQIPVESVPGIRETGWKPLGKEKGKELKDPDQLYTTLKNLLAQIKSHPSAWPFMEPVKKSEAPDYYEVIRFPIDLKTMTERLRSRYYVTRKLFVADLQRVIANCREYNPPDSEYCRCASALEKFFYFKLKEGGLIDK

| SMILES | Ki (KAT2A; [2]) [nM] | IC50 (H3K9AC (HT1080 cells); [3]) [nM] | IC50 (MM.1S cells; Homo sapiens, MM1.S, 240 h) [nM] | Ki (KAT2B; [4]) [nM] | IC50 (H3K9AC (HT1080 cells); H3K9AC sandwich ELISA) [nM] | IC50 (MM.1S cells) [nM] | Ki (KAT2A; [5]) [nM] | Ki (KAT2B) [nM] | additional metabolites observed [1] | most significant metabolite observed [1] |
| --- | --- | --- | --- | --- | --- | --- | --- | --- | --- | --- |
| CC(C)(C(=O)O)c1ccc(O[C@@H]2CC[C@@H](NC(=O)[C@@]3(F)CNC4(CCC4)C3)C2)c(-c2cccc(F)c2C2CCC2)c1 [Example A1, 2-(2′-cyclobutyl-3′-fluoro-6-{[(1R,3R)-3-{[(7S)-7-fluoro-5-azaspiro[3.4]octane-7-carbonyl]amino}cyclopentyl]oxy}[1,1′-biphenyl]-3-yl)-2-methylpropanoic acid] | 0.47 | 8.16 | 45.3 | 2.65 |  |  |  |  | CYP-mediated oxidation on the cyclobutane ring, the gem-dimethyl group and/or one or both of the biaryl rings; also recorded: direct glucose conjugate from UGT enzymes or chemical reaction | glucuronidation of the carboxylic acid group (Acyl glucuronide) |
| CN1CC(C)(C)C[C@H]1C(=O)N[C@@H]1CC[C@@H](Oc2ccc(CC(=O)O)cc2-c2cccc(F)c2C2CCC2)C1 [Example D10, [2′-cyclobutyl-3′-fluoro-6-({(1R,3R)-3-[(1,4,4-trimethyl-L-prolyl)amino]cyclopentyl}oxy)[1,1′-biphenyl]-3-yl]acetic acid] | 9.48 | 39.2 | 193 | 22.2 |  |  |  |  |  |  |
| CC1(C)CNCC(F)(C(=O)N[C@@H]2CC[C@@H](Oc3ccc(C(C)(C)C(=O)NS(=O)(=O)C4CC4)cc3-c3cccc(F)c3C3CCC3)C2)C1 (single isomer, unassigned) [Example B28] | 0.14 | 2.7 | 5 | 0.19 |  |  |  |  |  |  |
| CCS(=O)(=O)NC(=O)C(C)(C)c1ccc(O[C@@H]2CC[C@@H](NC(=O)[C@@]3(F)CNC(C)(C)C3)C2)c(-c2cccc(F)c2C2CCC2)c1 (single isomer, unassigned) [Example B13] | 0.14 |  |  | 0.35 | 1.96 | 38.8 |  |  |  |  |
| CC(C)(C(=O)NS(C)(=O)=O)c1ccc(O[C@@H]2CC[C@@H](NC(=O)[C@]3(F)CNC4(CCC4)C3)C2)c(-c2cccc(F)c2C2CC2)c1 (single isomer, unassigned) [Example C14] | 1.41 | 17.7 | 63.7 | 5.62 |  |  |  |  |  |  |
| CN1CC(C)(C)C[C@H]1C(=O)N[C@@H]1CC[C@@H](Oc2ccc(CC(=O)NS(=O)(=O)N(C)C)cc2-c2cccc(F)c2C2CCC2)C1 [Example E3, N-{(1R,3R)-3-[(2′-cyclobutyl-5-{2-[(dimethylsulfamoyl)amino]-2-oxoethyl}-3′-fluoro[1,1′-biphenyl]-2-yl)oxy]cyclopentyl}-1,4,4-trimethyl-L-prolinamide] | 0.03 | 0.84 | 3.82 | 0.02 |  |  |  |  |  |  |
| CN1CC(C)(C)C[C@H]1C(=O)N[C@@H]1CC[C@@H](Oc2ccc(C(C)(C)C(=O)NS(C)(=O)=O)cc2-c2cccc(F)c2C2CCC2)C1 [Example E1, N-{(1R,3R)-3-[(2′-cyclobutyl-3′-fluoro-5-{1-[(methanesulfonyl)amino]-2-methyl-1-oxopropan-2-yl}[1, 1′-biphenyl]-2-yl)oxy]cyclopentyl}-1,4,4-trimethyl-L-prolinamide] | 0.15 | 5.06 | 31.5 | 0.38 |  |  |  |  |  |  |
| CC1(C)C[C@@](F)(C(=O)N[C@@H]2CC[C@@H](Oc3ccc(C(C)(C)C(=O)NS(=O)(=O)N4CCC4)cc3-c3cccc(F)c3C3CCC3)C2)CN1 (single isomer, unassigned) [Example C7] | 0.07 | 5.79 | 17.5 | 0.04 |  |  |  |  |  |  |
| CC(C)(C(=O)NS(=O)(=O)N1CCC1)c1ccc(O[C@@H]2CC[C@@H](NC(=O)[C@@]3(F)CNC4(CCC4)C3)C2)c(-c2cccc(F)c2C2CCC2)c1 [Example C3, (7S)-N-{(1R,3R)-3-[(5-{1-[(azetidin-1-ylsulfonyl)amino]-2-methyl-1-oxopropan-2-yl}-2′-cyclobutyl-3′-fluorobiphenyl-2-yl)oxy]cyclopentyl}-7-fluoro-5-azaspiro[3.4]octane-7-carboxamide] | 0.05 | 3.84 | 6.22 | 0.06 |  |  |  |  |  |  |
| CN1CC(C)(C)C[C@H]1C(=O)N[C@@H]1CC[C@@H](Oc2ccc(-c3cn(C)nc3C(=O)O)cc2-c2cccc(F)c2C2CCC2)C1 [Example J1, 4-[2′-cyclobutyl-3′-fIuoro-6-({(1R,3R)-3-[(1,4,4-trimethyl -L-prolyl)amino]cyclopentyl}oxy)[1,1′-biphenyl]-3-yl]-1-methyl-1H-pyrazole-3-carboxylic acid] |  | 14.9 | 8.43 |  |  |  | 0.41 | 0.74 |  |  |

Continued by falling IC50 (MM.1S cells; Homo sapiens, MM1.S, 240 h), values first:

| Ki (KAT2A; [2]) [nM] | IC50 (H3K9AC (HT1080 cells); [3]) [nM] | IC50 (MM.1S cells; Homo sapiens, MM1.S, 240 h) [nM] | Ki (KAT2B; [4]) [nM] | IC50 (H3K9AC (HT1080 cells); H3K9AC sandwich ELISA) [nM] | IC50 (MM.1S cells) [nM] | Ki (KAT2A; [5]) [nM] | Ki (KAT2B) [nM] | SMILES | additional metabolites observed [1] | most significant metabolite observed [1] |
| --- | --- | --- | --- | --- | --- | --- | --- | --- | --- | --- |
| 0.54 | 7.67 | 92.4 | 1.21 |  |  |  |  | CC(C)(C(=O)O)c1ccc(O[C@@H]2CC[C@@H](NC(=O)[C@]3(F)CNC4(CCCC4)C3)C2)c(-c2cccc(F)c2C2CCC2)c1 (single isomer, unassigned) [Example A6] |  |  |
| 0.7 | 4.56 | 45.6 | 0.94 |  |  |  |  | CN1CC(C)(C)C[C@H]1C(=O)N[C@H]1C[C@H](Oc2ccc(CC(=O)O)cc2-c2cccc(F)c2C2CCC2)C[C@H]1O [Example K4, [2′-cyclobutyl-3′-fluoro-6-({(1S,3R,4S)-3-hydroxy-4-[(1,4,4-trimethyl-L-prolyl)amino]cyclopentyl}oxy)[1,1′-biphenyl]-3-yl]acetic acid] |  |  |
| 0.19 | 4.29 | 15.9 | 0.56 |  |  |  |  | CN1CC(C)(C)C[C@H]1C(=O)N[C@H]1C[C@H](Oc2ccc(C(=O)O)cc2-c2cccc(F)c2C2CCC2)C[C@H]1O (single isomer, unassigned) [Example K3, 2′-cyclobutyl-3′-fluoro-6-({(1ξ,3ξ,4ξ)-3-hydroxy-4-[(1,4,4-trimethyl-L-prolyl)amino]cyclopentyl}oxy)[1,1′-biphenyl]-3-carboxylic acid] |  |  |
| 0.06 | 6.96 | 13.7 | 0.17 |  |  |  |  | CN(C)S(=O)(=O)NC(=O)C(C)(C)c1ccc(O[C@@H]2CC[C@@H](NC(=O)[C@@]3(F)CNC(C)(C)C3)C2)c(-c2cccc(F)c2C2CCC2)c1 (single isomer, unassigned) [Example C9] |  |  |
| 0.16 | 2.62 | 12.8 | 0.53 |  |  |  |  | CCc1c(F)cccc1-c1cc(C(C)(C)C(=O)NS(C)(=O)=O)ccc1O[C@@H]1CC[C@@H](NC(=O)[C@@]2(F)CNC3(CCCC3)C2)C1 (single isomer, unassigned) [Example C27] |  |  |
|  |  | 3.5 |  | 1.5 |  | 0.02 | 0.07 | CC(C)S(=O)(=O)NC(=O)Cc1ccc(O[C@@H]2CC[C@@H](NC(=O)[C@]3(F)CNC4(CCC4)C3)C2)c(-c2cccc(F)c2C2CCC2)c1 (single isomer, unassigned) [Example C40] |  |  |
| 0.05 | 0.93 | 1.76 | 0.06 |  |  |  |  | CCS(=O)(=O)NC(=O)C(C)(C)c1ccc(O[C@@H]2CC[C@@H](NC(=O)[C@@]3(F)CNC4(CCCC4)C3)C2)c(-c2cccc(F)c2C2CCC2)c1 (single isomer, unassigned) [Example B20] |  |  |
